Assay [1] has as its system JeKo-1. The assay is described as follows: Antiproliferative activity against human Jeko-1 cells expressing CRBN-knockout assessed as cell viability measured after 7 days by CCK-8 assay. The assay is classed as functional, cell-based. Conditions: JeKo-1, 168 h. (Formazan colour is commonly taken as a measure of viable cells.)
Assay [2] relates to MM1.S. Kind of assay: Antiproliferative activity against human MM1.S cells assessed as cell viability measured after 7 days by CCK-8 assay. The class given is functional, cell-based. The conditions noted are these: 168 h.
A short description of assay [3]: Antiproliferative activity against human Mino cells assessed as cell viability measured after 7 days by CCK-8 assay. The class given is functional, cell-based. The conditions noted are these: 168 h.
Assay [4] concerns MM1.S. Kind of assay: Antiproliferative activity against human MM1.S cells assessed as cell viability measured after 3 days by CCK-8 assay. The class given is functional, cell-based. Conditions: 72 h.
Assay [5] deals with JeKo-1. The assay is described as follows: Antiproliferative activity against human Jeko-1 cells assessed as cell viability measured after 7 days by CCK-8 assay. The class given is functional, cell-based. The conditions noted are these: JeKo-1, 168 h.
Assay [6] concerns the target T1, Protein cereblon/AKT (Homo sapiens, UniProt P31751+Q9Y243+P31749+Q96SW2). Kind of assay: Protac activity at CRBN/Akt in human Jeko-1 cells assessed as decrease in Myc level after 24 hrs cotreated with Ibrutinib by immunoblot analysis. The class given is cell-based. (In general: Immunoblotting shows a protein as a band on a membrane.)
The target in assay [7] is Protein cereblon/RAC-alpha serine/threonine-protein kinase (Homo sapiens) (UniProt P31749+Q96SW2). The assay is described as follows: Protac activity at CRBN/Akt1 in human Jeko-1 cells assessed as Akt1 degradation at 500 nM after 12 hrs by immunoblot analysis. The class given is cell-based.
Protein cereblon/RAC-alpha serine/threonine-protein kinase (Homo sapiens), sequence (P31749 whole entry, looked up): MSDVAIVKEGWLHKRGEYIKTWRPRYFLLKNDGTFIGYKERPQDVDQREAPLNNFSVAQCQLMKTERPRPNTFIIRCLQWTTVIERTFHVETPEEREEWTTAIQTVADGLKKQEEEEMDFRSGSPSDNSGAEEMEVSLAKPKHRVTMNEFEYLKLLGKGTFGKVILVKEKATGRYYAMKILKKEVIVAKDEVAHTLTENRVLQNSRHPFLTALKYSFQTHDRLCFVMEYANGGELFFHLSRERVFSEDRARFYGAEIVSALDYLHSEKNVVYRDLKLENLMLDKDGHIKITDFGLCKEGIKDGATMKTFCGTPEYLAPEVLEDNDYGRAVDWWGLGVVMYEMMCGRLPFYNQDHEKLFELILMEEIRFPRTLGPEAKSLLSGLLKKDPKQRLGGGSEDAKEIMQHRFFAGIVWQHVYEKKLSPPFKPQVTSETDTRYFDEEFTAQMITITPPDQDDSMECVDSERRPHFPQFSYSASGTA
Protein cereblon/RAC-alpha serine/threonine-protein kinase (Homo sapiens), sequence (Q96SW2 whole entry, looked up): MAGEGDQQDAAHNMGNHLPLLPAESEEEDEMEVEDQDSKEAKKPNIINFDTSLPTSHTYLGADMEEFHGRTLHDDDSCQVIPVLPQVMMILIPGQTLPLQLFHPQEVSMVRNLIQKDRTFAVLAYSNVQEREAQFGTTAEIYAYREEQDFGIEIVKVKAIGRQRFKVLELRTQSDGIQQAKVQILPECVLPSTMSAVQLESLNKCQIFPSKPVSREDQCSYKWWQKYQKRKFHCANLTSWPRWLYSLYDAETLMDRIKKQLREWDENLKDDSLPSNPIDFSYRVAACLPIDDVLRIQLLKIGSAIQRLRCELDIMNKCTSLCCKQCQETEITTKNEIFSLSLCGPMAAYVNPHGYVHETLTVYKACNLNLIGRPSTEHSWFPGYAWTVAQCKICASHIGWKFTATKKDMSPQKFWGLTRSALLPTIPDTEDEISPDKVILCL
Assay [8] has as its target T1, Protein cereblon/AKT. The assay is described as follows: Protac activity at CRBN/Akt in human Jeko-1 cells assessed as Akt degradation at 250 nM after 2 hrs by immunoblot analysis. The assay is classed as cell-based.
Assay [9] addresses Protein cereblon/RAC-beta serine/threonine-protein kinase (Homo sapiens) (UniProt P31751+Q96SW2). The assay is described as follows: Protac activity at CRBN/Akt2 in human Jeko-1 cells assessed as Akt2 degradation at 500 nM after 12 hrs by immunoblot analysis. The class given is cell-based.
Assay [10] has as its target T1, Protein cereblon/AKT. The assay is described as follows: Protac activity at CRBN/Akt in human Jeko-1 cells assessed as Akt degradation at 250 nM after 24 hrs by immunoblot analysis relative to control. The class given is cell-based.
Assay [11] addresses T1, Protein cereblon/AKT. The assay is described as follows: Protac activity at CRBN/Akt in human Jeko-1 cells assessed as decrease in phosphorylated GSK3beta level after 24 hrs by immunoblot analysis. The assay is classed as cell-based. Conditions: dose 10-1000 nM.
Assay [12] concerns the target T1, Protein cereblon/AKT. Kind of assay: Protac activity at CRBN/Akt in human Jeko-1 cells assessed as Akt degradation after 24 hrs by immunoblot analysis relative to control. The class given is cell-based.
The subject of assay [13] is JeKo-1. The assay is described as follows: Antiproliferative activity against human Jeko-1 cells assessed as cell viability measured after 3 days cotreated with Ibrutinib by CCK-8 assay. The class given is functional, cell-based. Conditions: time 3.0 day.
Assay [14] addresses Protein cereblon/Zinc finger protein Aiolos (Homo sapiens) (UniProt Q96SW2+Q9UKT9). Kind of assay: Protac activity at CRBN/IKZF3 in human Jeko-1 cells assessed as IKZF3 degradation at 500 nM after 12 hrs by immunoblot analysis. The assay is classed as cell-based.

Active and inactive are the calls of the source. The rule behind the calls is not given here.

Protein cereblon/Zinc finger protein Aiolos (Homo sapiens), sequence (Q96SW2 whole entry, looked up): as above
Protein cereblon/Zinc finger protein Aiolos (Homo sapiens), sequence (Q9UKT9 whole entry, looked up): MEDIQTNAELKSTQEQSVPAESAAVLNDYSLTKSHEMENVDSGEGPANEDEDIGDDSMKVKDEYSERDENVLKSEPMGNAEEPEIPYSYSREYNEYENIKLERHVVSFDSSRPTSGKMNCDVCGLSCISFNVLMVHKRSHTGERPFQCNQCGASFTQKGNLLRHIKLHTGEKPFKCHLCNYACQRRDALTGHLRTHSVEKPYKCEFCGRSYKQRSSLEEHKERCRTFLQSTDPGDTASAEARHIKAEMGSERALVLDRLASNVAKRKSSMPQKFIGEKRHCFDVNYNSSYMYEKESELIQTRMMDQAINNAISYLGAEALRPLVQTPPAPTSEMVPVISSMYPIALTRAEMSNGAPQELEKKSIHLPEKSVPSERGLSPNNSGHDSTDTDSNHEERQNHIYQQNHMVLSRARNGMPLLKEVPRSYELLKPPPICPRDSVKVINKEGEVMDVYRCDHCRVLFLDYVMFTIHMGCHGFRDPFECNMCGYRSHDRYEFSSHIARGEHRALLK
Protein cereblon/RAC-beta serine/threonine-protein kinase (Homo sapiens), sequence (P31751 whole entry, looked up): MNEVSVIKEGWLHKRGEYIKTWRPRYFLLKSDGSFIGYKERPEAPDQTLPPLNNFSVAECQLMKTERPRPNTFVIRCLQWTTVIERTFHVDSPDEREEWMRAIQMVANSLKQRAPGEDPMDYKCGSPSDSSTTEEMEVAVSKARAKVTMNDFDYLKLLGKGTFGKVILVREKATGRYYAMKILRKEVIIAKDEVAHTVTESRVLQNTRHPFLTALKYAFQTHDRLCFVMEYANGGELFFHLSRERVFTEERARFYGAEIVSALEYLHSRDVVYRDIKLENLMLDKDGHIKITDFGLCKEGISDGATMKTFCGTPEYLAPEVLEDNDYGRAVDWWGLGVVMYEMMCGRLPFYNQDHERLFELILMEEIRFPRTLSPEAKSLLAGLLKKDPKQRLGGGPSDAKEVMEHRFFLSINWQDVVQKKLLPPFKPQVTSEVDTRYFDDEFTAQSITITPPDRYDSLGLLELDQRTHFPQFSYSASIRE
Protein cereblon/RAC-beta serine/threonine-protein kinase (Homo sapiens), sequence (Q96SW2 whole entry, looked up): as the sequence (Q96SW2 whole entry, looked up) above
T1 sequence (P31751 whole entry): as the sequence (P31751 whole entry, looked up) above
T1 sequence (Q9Y243 whole entry): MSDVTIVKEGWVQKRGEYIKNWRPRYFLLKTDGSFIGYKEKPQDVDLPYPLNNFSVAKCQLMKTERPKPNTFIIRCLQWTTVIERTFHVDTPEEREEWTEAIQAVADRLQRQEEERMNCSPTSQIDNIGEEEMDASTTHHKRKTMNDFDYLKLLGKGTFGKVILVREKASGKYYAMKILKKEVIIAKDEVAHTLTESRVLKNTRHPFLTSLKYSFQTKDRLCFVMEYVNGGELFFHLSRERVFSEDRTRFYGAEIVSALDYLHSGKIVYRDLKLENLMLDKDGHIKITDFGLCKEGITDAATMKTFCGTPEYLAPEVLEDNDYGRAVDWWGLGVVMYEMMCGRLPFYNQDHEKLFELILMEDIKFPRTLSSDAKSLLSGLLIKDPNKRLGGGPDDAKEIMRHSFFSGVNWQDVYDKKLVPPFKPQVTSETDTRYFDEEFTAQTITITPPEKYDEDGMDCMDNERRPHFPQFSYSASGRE
T1 sequence (P31749 whole entry): as the sequence (P31749 whole entry, looked up) above
T1 sequence (Q96SW2 whole entry): as the sequence (Q96SW2 whole entry, looked up) above

As a reminder, the IC50 is the concentration at which inhibition is half-maximal. As for `Nc1cccc2c1CN(C1CCC(=O)NC1=O)C2=O` (stereo not given) [LENALIDOMIDE], the IC50 in the assay with JeKo-1 [1] was more than 20000 nM; with MM1.S [2] it was 70.2 nM; in assay [3], more than 20000 nM; in the assay with MM1.S [4], more than 20000 nM; in the assay with JeKo-1 [5], more than 20000 nM.
As usually defined, the DC50 is the midpoint of the concentration-degradation curve. `Cn1ncc(Cl)c1-c1cc(C(=O)N[C@@H]2CN[C@H](CC(=O)Nc3ccc(OCCOCCOCCNc4cccc5c4C(=O)N(C4CCC(=O)NC4=O)C5=O)cc3)C[C@H]2c2cccc(F)c2)oc1Cl` (stereo not given in full): the result (at Protein cereblon/AKT [6]; in assay [7]; at Protein cereblon/AKT [8]; in [9]; on Protein cereblon/AKT [11]; with JeKo-1 [13]) was Active. For the same compound, the outcome in assay [14] was Active. For the same compound, the Activity on Protein cereblon/AKT [10] stood at 95%. The IC50 in the assay on JeKo-1 [1] was found to be 2320 nM; in the assay on MM1.S [2], 23.4 nM; in assay [3], 2270 nM; with MM1.S [4] it was 79 nM; with JeKo-1 [5], 205 nM. For the same compound, on Protein cereblon/AKT [12], the DC50 amounted to 28 nM.
Take `Nc1cccc2c1C(=O)N(C1CCC(=O)NC1=O)C2=O` (stereo not given) [POMALIDOMIDE]: the 50% inhibitory concentration (IC50) was more than 20000 nM in the assay on JeKo-1 [1]; 21.9 nM with MM1.S [2]; 16500 nM in [3]; 838 nM in the assay with MM1.S [4]; 2620 nM with JeKo-1 [5].
With `Cn1ncc(Cl)c1-c1ccc(C(=O)N[C@@H]2CN[C@H](CC(=O)Nc3ccc(OCCOCCOCCNc4cccc5c4C(=O)N(C4CCC(=O)NC4=O)C5=O)cc3)C[C@H]2c2cccc(F)c2)s1` (stereo not given in full), the Activity at Protein cereblon/AKT [10] came to 95%.
As for `CNC(=O)C[C@@H]1C[C@@H](c2cccc(F)c2)[C@H](NC(=O)c2ccc(-c3c(Cl)cnn3C)s2)CN1`, the IC50 came to 350 nM with JeKo-1 [1]; 72.4 nM in the assay on MM1.S [2]; 3370 nM in assay [3]; 72.9 nM in the assay with MM1.S [4]; 506 nM in the assay on JeKo-1 [5].
In the same order, the values of `COCCOCCOCCNc1cccc2c1C(=O)N(C1CCC(=O)NC1=O)C2=O` (stereo not given) are more than 20000 nM, 40.3 nM, more than 20000 nM, 4790 nM and more than 20000 nM.
